From patent publication US20090062253A1, “HETEROCYCLODIAZEPINE CANNABINOID RECEPTOR MODULATORS FOR TREATMENT OF DISEASE” (KALYPSYS, INC., priority 2007, published 2009)

Experiments:
[1] = target: T1, Human CB2 (Homo sapiens, UniProt P34972); experiment: Human CB2 Radioligand Binding Assay; details: membranes from stably transfected CHO CB2 cells; competition with [3H] CP-55,940; read-out: CB2 Ligand Binding Asssay
T1 construct: expressed in transfected cells; membrane preparation
How it was run: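 Filtration competition against [3H]CP-55,940 at its Kd on membranes from CHO cells stably expressing human CB2; compounds at 10 uM single point or dose-response, 1% DMSO. Buffer 50 mM Tris-HCl pH 7.4, EGTA, MgCl2, 5.0 mg/ml BSA; 90 min at 30° C, scintillation read; 100 nM CP-55,940 = 100%.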

[2] = target: T2, human cannabinoid receptor type 1 (Homo sapiens, UniProt P21554); experiment: Human CB1 Radioligand Binding Assay (basis of selectivity CB2 vs. CB1)
T2 construct: purchased Perkin Elmer RBHCB1M; host or cells: HEK 293 EBNA cells
T2 sequence (P21554 whole entry): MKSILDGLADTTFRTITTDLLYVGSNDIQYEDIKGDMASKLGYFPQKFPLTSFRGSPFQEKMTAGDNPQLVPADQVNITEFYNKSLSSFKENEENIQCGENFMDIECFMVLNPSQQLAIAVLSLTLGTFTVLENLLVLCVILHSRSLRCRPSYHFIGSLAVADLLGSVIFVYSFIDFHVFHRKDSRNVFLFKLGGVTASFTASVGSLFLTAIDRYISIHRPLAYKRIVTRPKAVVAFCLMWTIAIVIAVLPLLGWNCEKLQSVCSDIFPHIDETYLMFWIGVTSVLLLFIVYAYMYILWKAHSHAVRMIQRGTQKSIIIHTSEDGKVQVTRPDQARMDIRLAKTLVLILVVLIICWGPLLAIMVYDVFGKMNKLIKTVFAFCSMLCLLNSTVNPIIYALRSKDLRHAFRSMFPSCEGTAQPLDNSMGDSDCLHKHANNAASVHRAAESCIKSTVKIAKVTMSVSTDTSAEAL
How it was run: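 Filtration competition binding against [3H] CP-55,940 at its Kd, using membranes from HEK 293 EBNA cells expressing human CB1; 90 minutes at 30° C in 50 mM Tris-HCl pH 7.4, 2.5 mM EDTA, 5 mM MgCl2, 5.0 mg/ml BSA, 1% DMSO. Single point 10 uM or dose-response; 100 nM CP-55,940 defined 100% efficacy.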

T1 sequence (P34972 whole entry): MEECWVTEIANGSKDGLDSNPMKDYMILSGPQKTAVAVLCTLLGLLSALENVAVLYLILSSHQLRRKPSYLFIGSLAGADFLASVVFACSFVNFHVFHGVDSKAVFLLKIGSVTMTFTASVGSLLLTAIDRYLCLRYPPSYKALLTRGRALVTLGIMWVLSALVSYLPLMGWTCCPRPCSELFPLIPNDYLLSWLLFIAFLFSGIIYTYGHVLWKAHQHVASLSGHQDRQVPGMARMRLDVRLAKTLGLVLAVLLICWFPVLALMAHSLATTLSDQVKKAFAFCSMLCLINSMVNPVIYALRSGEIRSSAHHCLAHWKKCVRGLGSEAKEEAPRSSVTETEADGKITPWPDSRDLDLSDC

SMILES: CC(C)(C)c1ccc(C2=C(C(=O)Nc3ccc(C(F)(F)F)cc3)CCCn3cccc32)cc1 [Example 64, (E)-9-(4-tert-Butylphenyl)-N-(4-(trifluoromethyl)phenyl)-6,7-dihydro-5H-pyrrolo[1,2-a]azepine-8-carboxamide]
- IC50 (radioligand displacement) [1]: < 1 µM
- Selectivity, CB2 vs. CB1 [2]: − (− indicates < 10-fold)

SMILES: CC(C)(C)c1ccc(C2=C(C(=O)Nc3ccc(F)c(F)c3)CCCn3cccc32)cc1 [Example 65, (E)-9-(4-tert-Butylphenyl)-N-(3,4-difluorophenyl)-6,7-dihydro-5H-pyrrolo[1,2-a]azepine-8-carboxamide]
- IC50 (radioligand displacement) [1]: < 1 µM
- Selectivity, CB2 vs. CB1 [2]: + (+ indicates > 10-fold)

SMILES: CC(C)(C)c1ccc(C2=C(C(=O)Nc3ccc(Cl)cc3)CCCn3cccc32)cc1 [Example 66, (E)-9-(4-tert-Butylphenyl)-N-(4-chlorophenyl)-6,7-dihydro-5H-pyrrolo[1,2-a]azepine-8-carboxamide]
- IC50 (radioligand displacement) [1]: < 1 µM
- Selectivity, CB2 vs. CB1 [2]: + (+ indicates > 10-fold)

SMILES: O=C(Nc1ccc(F)cc1F)C1=C(c2ccccc2)c2cccn2CCC1 [Example 73, (E)-N-(2,4-Difluorophenyl)-9-phenyl-6,7-dihydro-5H-pyrrolo[1,2-a]azepine-8-carboxamide]
- IC50 (radioligand displacement) [1]: > 1 µM
- Selectivity, CB2 vs. CB1 [2]: − (− indicates < 10-fold)

SMILES: O=C(Nc1ccc(C(F)(F)F)cc1)C1=C(c2ccccc2)c2cccn2CCC1 [Example 74, (E)-9-Phenyl-N-(4-(trifluoromethyl)phenyl)-6,7-dihydro-5H-pyrrolo[1,2-a]azepine-8-carboxamide]
- IC50 (radioligand displacement) [1]: > 1 µM
- Selectivity, CB2 vs. CB1 [2]: − (− indicates < 10-fold)

SMILES: O=C(Nc1ccc(F)c(F)c1)C1=C(c2ccccc2)c2cccn2CCC1 [Example 75, (E)-N-(3,4-Difluorophenyl)-9-phenyl-6,7-dihydro-5H-pyrrolo[1,2-a]azepine-8-carboxamide]
- IC50 (radioligand displacement) [1]: < 1 µM
- Selectivity, CB2 vs. CB1 [2]: − (− indicates < 10-fold)

SMILES: CC(C)(C)c1ccc(C2=C(C(=O)Nc3ccc(Cl)cc3)CCCn3cncc32)cc1 [Example 77, (E)-9-(4-tert-Butylphenyl)-N-(4-chlorophenyl)-6,7-dihydro-5H-imidazo[1,5-a]azepine-8-carboxamide]
- IC50 (radioligand displacement) [1]: > 1 µM
- Selectivity, CB2 vs. CB1 [2]: − (− indicates < 10-fold)

SMILES: CC(C)(C)c1ccc(C2=C(C(=O)Nc3ccc(F)cc3F)CCCn3cncc32)cc1 [Example 78, ((E)-9-(4-tert-Butylphenyl)-N-(2,4-difluorophenyl)-6,7-dihydro-5H-imidazo[1,5-a]azepine-8-carboxamide]
- IC50 (radioligand displacement) [1]: > 1 µM
- Selectivity, CB2 vs. CB1 [2]: − (− indicates < 10-fold)

SMILES: CC(C)(C)c1ccc(C2=C(C(=O)Nc3ccc(Cl)c(Cl)c3)CCCn3cncc32)cc1 [Example 79, (E)-9-(4-tert-Butylphenyl)-N-(3,4-dichlorophenyl)-6,7-dihydro-5H-imidazo[1,5-a]azepine-8-carboxamide]
- IC50 (radioligand displacement) [1]: < 1 µM
- Selectivity, CB2 vs. CB1 [2]: − (− indicates < 10-fold)

SMILES: CC(C)(C)c1ccc(C2=C(C(=O)Nc3ccc(Cl)cc3Cl)CCCn3cncc32)cc1 [Example 80, (E)-9-(4-tert-Butylphenyl)-N-(2,4-dichlorophenyl)-6,7-dihydro-5H-imidazo[1,5-a]azepine-8-carboxamide]
- IC50 (radioligand displacement) [1]: > 1 µM
- Selectivity, CB2 vs. CB1 [2]: − (− indicates < 10-fold)

SMILES: CC(C)(C)c1ccc(CC2=C(C(=O)Nc3ccc(Cl)cc3)CCCn3cncc32)cc1 [Example 82, (E)-9-(4-tert-Butylbenzyl)-N-(4-chlorophenyl)-6,7-dihydro-5H-imidazo[1,5-a]azepine-8-carboxamide]
- IC50 (radioligand displacement) [1]: > 1 µM
- Selectivity, CB2 vs. CB1 [2]: − (− indicates < 10-fold)

SMILES: CC(C)(C)c1ccc(C2=C(NC(=O)Nc3ccc(Cl)cc3)CCCn3cccc32)cc1 [Example 83, (E)-1-(9-(4-tert-Butylphenyl)-6,7-dihydro-5H-pyrrolo[1,2-a]azepin-8-yl)-3-(4-chlorophenyl)urea]
- IC50 (radioligand displacement) [1]: < 1 µM
- Selectivity, CB2 vs. CB1 [2]: + (+ indicates > 10-fold)

SMILES: CC(C)(C)c1ccc(C2=C(NC(=O)Nc3ccc(F)cc3F)CCCn3cccc32)cc1 [Example 84, (E)-1-(9-(4-tert-Butylphenyl)-6,7-dihydro-5H-pyrrolo[1,2-a]azepin-8-yl)-3-(2,4-difluorophenyl)urea]
- IC50 (radioligand displacement) [1]: < 1 µM
- Selectivity, CB2 vs. CB1 [2]: + (+ indicates > 10-fold)

SMILES: CC(C)(C)c1ccc(C2=C(NC(=O)Nc3ccc(F)c(F)c3)CCCn3cccc32)cc1 [Example 85, (E)-1-(9-(4-tert-Butylphenyl)-6,7-dihydro-5H-pyrrolo[1,2-a]azepin-8-yl)-3-(3,4-difluorophenyl)urea]
- IC50 (radioligand displacement) [1]: < 1 µM
- Selectivity, CB2 vs. CB1 [2]: + (+ indicates > 10-fold)

SMILES: CC(C)(C)c1ccc(C2=C(NC(=O)Nc3ccc(Cl)cc3Cl)CCCn3cccc32)cc1 [Example 86, (E)-1-(9-(4-tert-Butylphenyl)-6,7-dihydro-5H-pyrrolo[1,2-a]azepin-8-yl)-3-(2,4-dichlorophenyl)urea]
- IC50 (radioligand displacement) [1]: < 1 µM
- Selectivity, CB2 vs. CB1 [2]: + (+ indicates > 10-fold)

SMILES: CC(C)(C)c1ccc(C2=C(NC(=O)Nc3ccc(Cl)c(Cl)c3)CCCn3cccc32)cc1 [Example 87, (E)-1-(9-(4-tert-Butylphenyl)-6,7-dihydro-5H-pyrrolo[1,2-a]azepin-8-yl)-3-(3,4-dichlorophenyl)urea]
- IC50 (radioligand displacement) [1]: > 1 µM
- Selectivity, CB2 vs. CB1 [2]: + (+ indicates > 10-fold)

SMILES: CC(C)(C)c1ccc(C2=C(NC(=O)Nc3ccc(C(F)(F)F)cc3)CCCn3cccc32)cc1 [Example 88, (E)-1-(9-(4-tert-Butylphenyl)-6,7-dihydro-5H-pyrrolo[1,2-a]azepin-8-yl)-3-(4-(trifluoromethyl)phenyl)urea]
- IC50 (radioligand displacement) [1]: < 1 µM
- Selectivity, CB2 vs. CB1 [2]: + (+ indicates > 10-fold)

SMILES: COc1ccc(COC(=O)NC2=C(c3ccc(C(C)(C)C)cc3)c3cccn3CCC2)cc1 [Example 89, (E)-4-Methoxybenzyl 9-(4-tert-butylphenyl)-6,7-dihydro-5H-pyrrolo[1,2-a]azepin-8-ylcarbamate]
- IC50 (radioligand displacement) [1]: > 1 µM
- Selectivity, CB2 vs. CB1 [2]: − (− indicates < 10-fold)

SMILES: CC(C)(C)c1ccc(C2c3cccn3CCCC2C(=O)Nc2ccc(F)c(F)c2)cc1 (stereo not drawn) [Example 91, 9-(4-tert-Butylphenyl)-N-(3,4-difluorophenyl)-6,7,8,9-tetrahydro-5H-pyrrolo[1,2-a]azepine-8-carboxamide]
- IC50 (radioligand displacement) [1]: < 1 µM
- Selectivity, CB2 vs. CB1 [2]: + (+ indicates > 10-fold)

SMILES: CC(C)(C)c1ccc(C2c3cccn3CCCC2C(=O)Nc2ccc(Cl)cc2)cc1 (stereo not drawn) [Example 92, 9-(4-tert-Butylphenyl)-N-(4-chlorophenyl)-6,7,8,9-tetrahydro-5H-pyrrolo[1,2-a]azepine-8-carboxamide]
- IC50 (radioligand displacement) [1]: < 1 µM
- Selectivity, CB2 vs. CB1 [2]: + (+ indicates > 10-fold)

SMILES: CC(C)(C)c1ccc(C2c3cccn3CCCC2C(=O)Nc2ccc(C(F)(F)F)cc2)cc1 (stereo not drawn) [Example 93, 9-(4-tert-Butylphenyl)-N-(4-(trifluoromethyl)phenyl)-6,7,8,9-tetrahydro-5H-pyrrolo[1,2-a]azepine-8-carboxamide]
- IC50 (radioligand displacement) [1]: < 1 µM
- Selectivity, CB2 vs. CB1 [2]: − (− indicates < 10-fold)

SMILES: CC(C)(C)c1ccc(C2c3cccn3CCCC2C(=O)Nc2ccc(OC(F)(F)F)cc2)cc1 (stereo not drawn) [Example 94, 9-(4-tert-Butylphenyl)-N-(4-(trifluoromethoxy)phenyl)-6,7,8,9-tetrahydro-5H-pyrrolo[1,2-a]azepine-8-carboxamide]
- IC50 (radioligand displacement) [1]: < 1 µM
- Selectivity, CB2 vs. CB1 [2]: − (− indicates < 10-fold)

SMILES: CC(C)(C)c1ccc(C2c3cccn3CCC2C(=O)Nc2ccc(C(F)(F)F)cc2)cc1 (stereo not drawn) [Example 96, 8-(4-tert-Butylphenyl)-N-(4-(trifluoromethyl)phenyl)-5,6,7,8-tetrahydroindolizine-7-carboxamide]
- IC50 (radioligand displacement) [1]: > 1 µM
- Selectivity, CB2 vs. CB1 [2]: − (− indicates < 10-fold)

SMILES: CC(C)(C)c1ccc(C2c3cccn3CCC2C(=O)Nc2ccc(OC(F)(F)F)cc2)cc1 (stereo not drawn) [Example 97, 8-(4-tert-Butylphenyl)-N-(4-(trifluoromethoxy)phenyl)-5,6,7,8-tetrahydroindolizine-7-carboxamide]
- IC50 (radioligand displacement) [1]: > 1 µM
- Selectivity, CB2 vs. CB1 [2]: − (− indicates < 10-fold)

SMILES: CC(C)(C)c1ccc(C2[C@@H]3CCCN3CCCN2C(=O)Nc2ccc(F)cc2F)cc1 (stereo partly drawn) [Example 129, (9aS)-1-(4-tert-Butylphenyl)-N-(2,4-difluorophenyl)hexahydro-1H-pyrrolo[1,2-a][1,4]diazepine-2(3H)-carboxamide]
- IC50 (radioligand displacement) [1]: < 1 µM
- Selectivity, CB2 vs. CB1 [2]: + (+ indicates > 10-fold)

SMILES: CC(C)(C)c1ccc(C2[C@@H]3CCCN3CCCN2C(=O)Nc2ccc(F)c(F)c2)cc1 (stereo partly drawn) [Example 130, (9aS)-1-(4-tert-Butylphenyl)-N-(3,4-difluorophenyl)hexahydro-1H-pyrrolo[1,2-a][1,4]diazepine-2(3H)-carboxamide]
- IC50 (radioligand displacement) [1]: < 1 µM
- Selectivity, CB2 vs. CB1 [2]: + (+ indicates > 10-fold)

SMILES: CC(C)(C)c1ccc(C2[C@@H]3CCCN3CCCN2C(=O)Nc2ccc(Cl)cc2)cc1 (stereo partly drawn) [Example 131, (9aS)-1-(4-tert-Butylphenyl)-N-(4-chlorophenyl)hexahydro-1H-pyrrolo[1,2-a][1,4]diazepine-2(3H)-carboxamide]
- IC50 (radioligand displacement) [1]: < 1 µM
- Selectivity, CB2 vs. CB1 [2]: + (+ indicates > 10-fold)
